Data: patent US9982232B2, “Methods of generating cells with multilineage potential” (NEWSOUTH INNOVATIONS PTY LIMITED, priority 2012, dated 2018)

B1: Pdgf-BB: platelet derived growth factor BB, tested with/without AZA (protein, UniProt P31240 82-190, looked up)
Platelet-derived growth …: SLGSLAAAEPAVIAECKTRTEVFQISRNLIDRTNANFLVWPPCVEVQRCSGCCNNRNVQCRASQVQMRPVQVRKIEIVRKKPIFKKATVTLEDHLACKCETIVTPRPVT
modifications: homodimer
notes: platelet derived growth factor BB, tested with/without AZA
B2: Hgf: hepatocyte growth factor, tested with or without AZA (protein, UniProt Q08048 33-495; Q08048 496-728, looked up)
Hepatocyte growth factor …: QKKRRNTLHEFKKSAKTTLTKEDPLLKIKTKKVNSADECANRCIRNRGFTFTCKAFVFDKSRKRCYWYPFNSMSSGVKKGFGHEFDLYENKDYIRNCIIGKGGSYKGTVSITKSGIKCQPWNSMIPHEHSFLPSSYRGKDLQENYCRNPRGEEGGPWCFTSNPEVRYEVCDIPQCSEVECMTCNGESYRGPMDHTESGKTCQRWDQQTPHRHKFLPERYPDKGFDDNYCRNPDGKPRPWCYTLDPDTPWEYCAIKTCAHSAVNETDVPMETTECIQGQGEGYRGTSNTIWNGIPCQRWDSQYPHKHDITPENFKCKDLRENYCRNPDGAESPWCFTTDPNIRVGYCSQIPKCDVSSGQDCYRGNGKNYMGNLSKTRSGLTCSMWDKNMEDLHRHIFWEPDASKLNKNYCRNPDDDAHGPWCYTGNPLIPWDYCPISRCEGDTTPTIVNLDHPVISCAKTKQLR
Hepatocyte growth factor beta …: VVNGIPTQTTVGWMVSLKYRNKHICGGSLIKESWVLTARQCFPARNKDLKDYEAWLGIHDVHERGEEKRKQILNISQLVYGPEGSDLVLLKLARPAILDNFVSTIDLPSYGCTIPEKTTCSIYGWGYTGLINADGLLRVAHLYIMGNEKCSQHHQGKVTLNESELCAGAEKIGSGPCEGDYGGPLICEQHKMRMVLGVIVPGRGCAIPNRPGIFVRVAYYAKWIHKVILTYKL
B3: bFgf: basic fibroblast growth factor, tested with or without AZA (protein, UniProt P15655 10-154, looked up)
Fibroblast growth factor 2: PALPEDGGAAFPPGHFKDPKRLYCKNGGFFLRIHPDGRVDGVREKSDPHVKLQLQAEERGVVSIKGVCANRYLAMKEDGRLLASKCVTEECFFFERLESNNYNTYRSRKYSSWYVALKRTGQYKLGSKTGPGQKAILFLPMSAKS

Legend:
Format in all cases: cell-based, mouse
primary osteoblasts [1] = assay: Inhibitor studies: PDGF-AB/AZA mediated oCFU-F production from primary osteoblasts; settings: inhibitor in reprogramming cocktail from day 1 for 12 days
Experimental: (§1) In vitro differentiated bone, cartilage, fat and long-bone derived osteocytes were first cultured in MSC medium (αMEM+20% FCS+P/S/G) with or without 10 μM 5′Azacitidine (Tocris Biosciences) and with or without cytokine (50 or 100 ng/ml Pdgf-AA or Pdgf-BB or Pdgf-AB, 10 ng/ml bFgf, 20 ng/ml HGF, 10 ng/ml Igf-1 and 10 ng/ml Vegf for 2 days and then cultured in MSC media with or without cytokine for 10 days. In order to investigate the reprogramming cell signalling pathways, inhibitors were added to the reprogramming cocktail from day 1 and kept for 12 days. Media was refreshed every 3-4 days. At the end of day 12 cells were harvested for downstream analysis.
Active Pdgf isoforms stimulate cells by binding to and activating signalling by dimerization of two distinct, but structurally related, membrane bound receptor tyrosine kinases; Pdgf receptor-α (Pdgfrα) and Pdgf receptor-β (Pdgfrβ). Pdgf-BB has a greater binding affinity for Pdgfrβ but can also bind Pdgfrα whereas Pdgf-AA interacts only with Pdgfrα. Therefore, Pdgf-AA induces αα-receptor homodimers, PDGF-AB, both αα-receptor homodimers and αβ-receptor heterodimers and Pdgf-BB, all three dimeric combinations of α and β receptors, however in vivo binding of PDGF-AB is not known. Primary osteoblasts express Pdgfrβ but not Pdgfrα. […]

[2] = tested on: in vitro differentiated bone, cartilage and fat cells; assay: CFU-F colony formation and replating of in vitro derived bone, cartilage and fat cells cultured with cytokines with and without AZA; settings: for colony forming potential (CFU-F): cells maintained 12 days in MSC culture medium with supplement
Experimental: as §1
CFU-Fs, oCFU-Fs, cCFU-Fs and aCFU-Fs were expanded in bulk culture after plating 10,000 cells per T75 flask. Resulting cells were split every 8 days. CFU-F and oCFU-F colonies were isolated individually using cloning cylinders (‘O” rings) (Sigma-Aldrich) and CFU-F clones (micro, small and large) and Osteocyte oCFU-F clones (micro, small and large) were pooled individually as micro (MC), small (SC) and large (LC) colonies and cultured first in T25 flask for 12 days and then from passage 2 onwards in T75 flask for 12 days. Cumulative cells numbers were calculated and plotted (log 10 scale). Micro, small and large colony's 2ry, 3ry and 4ry colony formation was evaluated by plating single cell from individual colonies into 96 well plates. In order to investigate differences in proliferative capacity of reprogrammed cells compared with primary CFU-Fs, cells were plated on RTCA resistor plate 96 (Roche Diagnostics) (200 cells/well) and recorded using XCELLigence (ACEA Biosciences) every 15 mins for 8 days.
To test whether lineage committed mesodermal cells could be induced to proliferate, bone marrow CFU-Fs (Colony Forming Units-Fibroblast) were harvested from mice, and following in vitro differentiation into bone, cartilage and fat cells, cultured them with different cytokines with and without AZA.
To assess and compare clonal vigour of replated cells, the inventors have developed a system to classify CFU-Fs based on cell number and size (Chong et al., 2011).

primary osteoblasts [3] = assay: Surface Pdgf receptor expression and signalling protein levels in primary osteoblasts; settings: within 48 hours of exposure
Experimental: Cell pellets were lysed in non-denaturing lysis buffer containing Complete Protease inhibitor cocktail (Roche) and PhosStop (Roche), followed by brief sonication using Bioruptor (Diagenode). The supernatant of the whole-cell extracts were loaded onto NuPage 4-12% Bis-Tri Gel (Life Technology) and transferred using iBlot Gel Transfer Kit (Nitrocellulose, Life Technology) according to the manufacturers instructions. Densitometry was performed using GE ImageQuant TL Software Version 7.0.
Active Pdgf isoforms stimulate cells by binding to and activating signalling by dimerization of two distinct, but structurally related, membrane bound receptor tyrosine kinases; Pdgf receptor-α (Pdgfrα) and Pdgf receptor-β (Pdgfrβ). Pdgf-BB has a greater binding affinity for Pdgfrβ but can also bind Pdgfrα whereas Pdgf-AA interacts only with Pdgfrα. Therefore, Pdgf-AA induces αα-receptor homodimers, PDGF-AB, both αα-receptor homodimers and αβ-receptor heterodimers and Pdgf-BB, all three dimeric combinations of α and β receptors, however in vivo binding of PDGF-AB is not known. Primary osteoblasts express Pdgfrβ but not Pdgfrα. […] These included expression of Pdgf receptors α and β, and components of the Jak/Stat and Jnk/c-Jun pathways but not the PI3kinase pathway. […]

[4] = tested on: osteocytes from long bones of Pdgfrα-H2B:GFP mice; assay: Reprogramming of primary osteocytes from Pdgfrα-H2B:GFP mice (CFU-F assays, flow cytometry)
Experimental: Osteocytes were isolated from long bones of either wild-type C57BL/6 or Pdgfra-nGFP mice. The mice were sacrificed at 8-16 weeks of age. Tibias and femurs were removed, cleaned of soft tissues and transferred to ice cold PBS. Bone marrow was flushed out with 2% FCS in PBS and bones were crushed and cut into ˜200 μm-400 μm pieces using a mortar and pestle and scissors. Bone fragments were transferred into 5 ml of collagenase (Type II, 2 mg/ml) in PBS and placed on a water bath shaker at 37° C. for 30 min twice. Supernatant was collected and collagenase was inactivated with 10 ml of 2% FCS and 5 mM EDTA in PBS. Cells were collected through 40 μm cell strainer. Cells were stained for Seal, CD51, CD31, Lin/CD45 and Pdgfrα. These cells were FACS sorted for Sca1^−/CD31^−/Pdgfra-nGFP^−/Pdgfra-Protein^−/CD51^+ osteocytes. FACS sorted osteocytes and bone fragments were cultured independently in complete culture medium (DMEM+P/S/G+100 ug/ml of ascorbate+10% FCS). Cells were cultured at 37° C. and 5% CO2 in the incubator for 8-10 days. […]
To evaluate how primary lineage committed cells respond to PDGF-AB/AZA, the inventors harvested Lin^−, CD45^−/Sca1^−/CD31^−/Pdgfrα-nGFP^−/Pdgfrα^−/CD51^+ osteocytes from long bones of Pdgfrα-H2B:GFP mice. […] The emergence of CFU-F capacity in reprogrammed osteocytes was evaluated by replating cells for CFU-F assays from the end of day 1 onwards (FIG. 2A).

Row | Molecule | number of CFU-Fs generated at first passage ([2]; bone, cartilage and fat cells) | numbers of large colonies at first passage ([2]; bone, cartilage and fat cells) | colony forming potential (CFU-F) [2] | other results
1 | COc1cc2ncc(-c3ccccc3)nc2cc1OC [AG1296] |  |  |  | PDGF-AB/AZA mediated oCFU-F production from primary osteoblasts in presence of inhibitor (primary osteoblasts [1]): abolished
2 | Nc1ncn([C@@H]2O[C@H](CO)[C@@H](O)[C@H]2O)c(=O)n1 [AZA, Azacitidine, reference compound] | also generated CFU-Fs at first passage |  |  | serial passaging / replating of colonies ([2]; bone, cartilage and fat cells): could not be replated at all; surface Pdgfrα protein expression on primary osteoblasts (primary osteoblasts [3]): Pdgfrα protein expression was evident
3 | Igf-1: insulin-like growth factor-1, tested with or without AZA | substantially lower than with PDGF-AB | few large colonies | either no or limited CFU-F potential | 
4 | Vegf | substantially lower than with PDGF-AB | few large colonies | either no or limited CFU-F potential | 
5 | B1 |  |  |  | passaging of CFU-F colonies from treated osteocytes ([4]; 12 days treatment): could not be passaged; CFU-F capacity of treated osteocytes ([4]; up to 12 days treatment): very limited CFU-F capacity
6 | B2 | substantially lower than with PDGF-AB | few large colonies | either no or limited CFU-F potential | 
7 | B3 | substantially lower than with PDGF-AB | few large colonies | either no or limited CFU-F potential | 
